Consider 22 compounds from US20180244611A1, “Modulators of the Cystic Fibrosis Transmembrane Conductance Regulator Protein and Methods of Use” (AbbVie S.à.r.l., priority 2017, published 2018).

In assay [1] the target is T1, F508delCFTR (Homo sapiens, UniProt P13569, DEL508-508).
T1 construct: expressed in transfected cells; host or cells: CFBE41o- human lung-derived epithelial cells (CFBE41o-F508delCFTR-HRP), doxycycline-inducible
Nature of the assay: Cell Surface Expression-Horse Radish Peroxidase (CSE-HRP) assay, test compound without co-corrector.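 On Emax: percent of on-plate 2 µM positive control corrector response over DMSO.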 Conditions: for Emax: maximum at any tested concentration, normalized to positive control, without co-corrector; for EC50: test compound without co-corrector. It is filed as cell-based. The method in brief:
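Compound without co-corrector was tested at eight 3-fold concentrations, top 20 μM, for 18-24 h at 33° C on doxycycline-induced (0.5 μg/mL, 72 h) CFBE41o- F508delCFTR-HRP cells. After DPBS washes, luminol luminescence gave % activity relative to on-plate positive control minus DMSO; EC50 came from triplicate-plate sigmoidal fitting.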

The target of assay [2] is T1, F508delCFTR. Nature of the assay: Cell Surface Expression-Horse Radish Peroxidase (CSE-HRP) assay, test compound with co-corrector.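 On Maximum % activity (with co-corrector): percent of 2 µM positive control corrector over DMSO; co-corrector is that same compound.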 Conditions: with 2 μM co-corrector; for Maximum % activity (with co-corrector): maximum at any tested concentration, normalized to positive control. It is filed as cell-based. A digest of the protocol:
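Surface-expression read-out: luminol luminescence from an HRP tag in the fourth exofacial loop of F508delCFTR, in doxycycline-induced (0.5 μg/mL, 72 h) CFBE41o- cells. Compound plus 2 μM co-corrector added for 18-24 h at 33° C., 8-point 3-fold series up to 20 μM. EC50 from a sigmoidal fit with variable Hill slope, normalised to positive control, triplicate plates.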

What is called Emax is the size of the effect at its maximum, as opposed to the concentration needed. A word on the EC50: it is the concentration needed to bring the measured effect to its halfway point.

T1 sequence (P13569 with tags, fused parts or gaps DEL508-508): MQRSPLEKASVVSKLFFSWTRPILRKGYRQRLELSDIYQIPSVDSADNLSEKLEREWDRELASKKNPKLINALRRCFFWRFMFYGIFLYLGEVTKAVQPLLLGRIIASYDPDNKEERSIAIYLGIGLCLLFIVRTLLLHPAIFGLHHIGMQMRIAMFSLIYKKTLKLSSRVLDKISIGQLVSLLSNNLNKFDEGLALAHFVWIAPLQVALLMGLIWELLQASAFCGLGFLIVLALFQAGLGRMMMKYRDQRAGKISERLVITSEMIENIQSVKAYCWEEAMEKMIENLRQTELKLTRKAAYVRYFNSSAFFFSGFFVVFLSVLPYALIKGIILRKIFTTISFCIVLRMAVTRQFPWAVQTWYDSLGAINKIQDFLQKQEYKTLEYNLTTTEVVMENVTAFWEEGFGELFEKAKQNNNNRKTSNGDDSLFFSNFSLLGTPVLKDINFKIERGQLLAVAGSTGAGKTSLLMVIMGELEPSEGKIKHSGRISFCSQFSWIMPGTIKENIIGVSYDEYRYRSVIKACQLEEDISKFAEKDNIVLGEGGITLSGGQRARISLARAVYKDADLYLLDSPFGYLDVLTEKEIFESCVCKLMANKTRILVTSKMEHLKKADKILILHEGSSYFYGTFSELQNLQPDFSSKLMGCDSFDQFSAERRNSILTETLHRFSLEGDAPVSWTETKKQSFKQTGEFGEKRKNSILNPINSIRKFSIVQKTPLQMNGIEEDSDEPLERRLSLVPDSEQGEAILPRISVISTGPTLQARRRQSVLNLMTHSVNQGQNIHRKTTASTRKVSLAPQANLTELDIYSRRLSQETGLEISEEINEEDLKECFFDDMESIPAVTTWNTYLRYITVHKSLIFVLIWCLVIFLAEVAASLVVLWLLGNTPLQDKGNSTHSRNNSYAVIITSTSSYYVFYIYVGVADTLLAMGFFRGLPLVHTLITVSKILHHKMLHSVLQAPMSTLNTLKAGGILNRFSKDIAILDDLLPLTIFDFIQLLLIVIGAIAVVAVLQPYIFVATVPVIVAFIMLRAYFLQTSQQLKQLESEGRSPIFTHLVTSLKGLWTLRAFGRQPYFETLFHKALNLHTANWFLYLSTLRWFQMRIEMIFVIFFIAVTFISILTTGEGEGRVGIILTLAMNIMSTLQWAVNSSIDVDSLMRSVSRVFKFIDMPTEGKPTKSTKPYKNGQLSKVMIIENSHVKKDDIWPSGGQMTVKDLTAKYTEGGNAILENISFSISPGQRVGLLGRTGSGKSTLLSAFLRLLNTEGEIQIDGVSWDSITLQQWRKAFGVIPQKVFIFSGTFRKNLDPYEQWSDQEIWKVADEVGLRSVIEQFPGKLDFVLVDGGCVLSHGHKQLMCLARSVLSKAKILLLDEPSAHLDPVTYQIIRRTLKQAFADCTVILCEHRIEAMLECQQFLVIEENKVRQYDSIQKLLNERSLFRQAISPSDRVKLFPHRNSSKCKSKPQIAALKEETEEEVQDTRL

For `COc1ccc(CC(C)C)c2c1CCCC2C(=O)NS(=O)(=O)c1cccc2ccccc12` (stereo not shown) [Example I-67, 5-methoxy-8-(2-methylpropyl)-N-(naphthalene-1-sulfonyl)-1,2,3,4-tetrahydronaphthalene-1-carboxamide], at F508delCFTR [1], the Emax was at least 150% and the EC50 was below 3 µM. On F508delCFTR [2], the “Maximum % activity (with co-corrector)” value is listed as “+++ (≥350)” and the EC50 is below 3 µM.

Regarding `COc1ccc(CC(C)C)c2c1C(C(=O)NS(=O)(=O)c1cccc3ccccc13)CCC2` (stereo not shown) [Example I-68, 8-methoxy-5-(2-methylpropyl)-N-(naphthalene-1-sulfonyl)-1,2,3,4-tetrahydronaphthalene-1-carboxamide], on F508delCFTR [1], the Emax is at least 150% and the half-maximal effective concentration (EC50) is below 3 µM. Further, on F508delCFTR [2], the “Maximum % activity (with co-corrector)” value is given as “+++ (≥350)” and the EC50 was below 3 µM.

At F508delCFTR [1], `COc1ccc(C2CCC2)c2c1C(C(=O)NS(=O)(=O)c1cccc3ccccc13)CCC2` (stereo not shown) [Example I-69, 5-cyclobutyl-8-methoxy-N-(naphthalene-1-sulfonyl)-1,2,3,4-tetrahydronaphthalene-1-carboxamide] came in with a maximum response (Emax) of at least 150% and an EC50 below 3 µM. For the same compound, on F508delCFTR [2], the “Maximum % activity (with co-corrector)” value is recorded as “+++ (≥350)” and the EC50 is below 3 µM.

On F508delCFTR [1], `COc1ccc(Cl)c2c1C(C(=O)NS(=O)(=O)c1cccc3ccccc13)CCC2` (stereo not shown) [Example I-70, 5-chloro-8-methoxy-N-(naphthalene-1-sulfonyl)-1,2,3,4-tetrahydronaphthalene-1-carboxamide] had a maximum response (Emax) of at least 150% and an EC50 below 3 µM. Further, at F508delCFTR [2], the “Maximum % activity (with co-corrector)” value was “+++ (≥350)” and the EC50 was below 3 µM.

On F508delCFTR [1], `COc1ccc(Cl)c2c1[C@@H](C(=O)NS(=O)(=O)c1cccc3ccccc13)CC2` [Example I-71, (1S)-4-chloro-7-methoxy-N-(naphthalene-1-sulfonyl)-2,3-dihydro-1H-indene-1-carboxamide] came in with an Emax of 50 to 150% and an EC50 of 3 to 10 µM. Moreover, on F508delCFTR [2], the “Maximum % activity (with co-corrector)” value was “++ (≥150 and <350)”; the EC50 fell in the range of 3 to 10 µM.

For the compound `COc1ccc(Cl)c2c1[C@H](C(=O)NS(=O)(=O)c1cccc3ccccc13)CC2` [Example I-72, (1R)-4-chloro-7-methoxy-N-(naphthalene-1-sulfonyl)-2,3-dihydro-1H-indene-1-carboxamide], on F508delCFTR [1], the Emax was at least 150% and the EC50 lay within 3 to 10 µM. Besides, on F508delCFTR [2], the “Maximum % activity (with co-corrector)” value is on record as “+++ (≥350)” and the EC50 is below 3 µM.

On to `COc1ccc(OC)c2c1CCCC2C(=O)NS(=O)(=O)c1cccc2ccccc12` (stereo not shown) [Example I-73, 5,8-dimethoxy-N-(naphthalene-1-sulfonyl)-1,2,3,4-tetrahydronaphthalene-1-carboxamide], for which, at F508delCFTR [1], the Emax was at least 150% and the EC50 lay in the range of 3 to 10 µM. Further, at F508delCFTR [2], the “Maximum % activity (with co-corrector)” value was “+++ (≥350)” and the EC50 was below 3 µM.

At F508delCFTR [1], `CCC1(C(=O)NS(=O)(=O)c2cccc3c2ccn3C)CCc2c(Cl)cccc21` (stereo not shown) [Example I-74, 4-chloro-1-ethyl-N-(1-methyl-1H-indole-4-sulfonyl)-2,3-dihydro-1H-indene-1-carboxamide] gave an Emax of at least 150% and an EC50 of 3 to 10 µM. In addition, on F508delCFTR [2], the “Maximum % activity (with co-corrector)” value is on record as “+++ (≥350)” and the EC50 is below 3 µM.

At F508delCFTR [1], `COc1ccc(C)c2c1C(C(=O)NS(=O)(=O)c1cccc3ccccc13)CC2` (stereo not shown) [Example I-75, 7-methoxy-4-methyl-N-(naphthalene-1-sulfonyl)-2,3-dihydro-1H-indene-1-carboxamide] displayed an Emax of at least 150% and an EC50 below 3 µM. Besides, at F508delCFTR [2], the “Maximum % activity (with co-corrector)” value is reported as “+++ (≥350)” and the EC50 was below 3 µM.

On F508delCFTR [1], `COc1ccc(C2CCC2)c2c1C(C(=O)NS(=O)(=O)c1cccc3ccccc13)CC2` (stereo not shown) [Example I-76, 4-cyclobutyl-7-methoxy-N-(naphthalene-1-sulfonyl)-2,3-dihydro-1H-indene-1-carboxamide] gave an Emax of at least 150% and an EC50 of 3 to 10 µM. On F508delCFTR [2], the “Maximum % activity (with co-corrector)” value was “+++ (≥350)” and the EC50 is below 3 µM.

On F508delCFTR [1], `COc1ccc(C2CCC2)c2c1C(C(=O)NS(=O)(=O)c1cccc3ncccc13)CC2` (stereo not shown) [Example I-77, 4-cyclobutyl-7-methoxy-N-(quinoline-5-sulfonyl)-2,3-dihydro-1H-indene-1-carboxamide] gave a maximal response (Emax) of at least 150% and an EC50 of 3 to 10 µM. At F508delCFTR [2], the “Maximum % activity (with co-corrector)” value is reported as “+++ (≥350)” and the EC50 was below 3 µM.

With `COc1ccc(Br)c2c1C(C(=O)NS(=O)(=O)c1cccc3nccn13)CC2` (stereo not shown) [Example I-78, 4-bromo-N-(imidazo[1,2-a]pyridine-5-sulfonyl)-7-methoxy-2,3-dihydro-1H-indene-1-carboxamide], on F508delCFTR [1], the Emax is at least 150% and the EC50 lay within 3 to 10 µM. Besides, on F508delCFTR [2], the “Maximum % activity (with co-corrector)” value was “+++ (≥350)” and the EC50 is below 3 µM.

Take `COc1ccc(Br)c2c1C(C(=O)NS(=O)(=O)c1cccc3ccccc13)C2` (stereo not shown) [Example I-79, 2-bromo-5-methoxy-N-(naphthalene-1-sulfonyl)bicyclo[4.2.0]octa-1,3,5-triene-7-carboxamide]: on F508delCFTR [1], the Emax was at least 150% and the concentration for a half-maximal effect (EC50) lay in the range of 3 to 10 µM. Besides, at F508delCFTR [2], the “Maximum % activity (with co-corrector)” value is “+++ (≥350)” and the EC50 is below 3 µM.

As to `COc1ccc(C2CCC2)c2c1[C@@H](C(=O)NS(=O)(=O)c1cccc3ccccc13)CC2` [Example I-80, (1S)-4-cyclobutyl-7-methoxy-N-(naphthalene-1-sulfonyl)-2,3-dihydro-1H-indene-1-carboxamide], on F508delCFTR [1], the Emax fell in the range of 50 to 150% and the concentration giving a half-maximal response (EC50) fell in the range of 3 to 10 µM. At F508delCFTR [2], the “Maximum % activity (with co-corrector)” value is reported as “+++ (≥350)” and the half-maximal effective concentration (EC50) fell in the range of 3 to 10 µM.

`COc1ccc(C2CCC2)c2c1[C@H](C(=O)NS(=O)(=O)c1cccc3ccccc13)CC2` [Example I-81, (1R)-4-cyclobutyl-7-methoxy-N-(naphthalene-1-sulfonyl)-2,3-dihydro-1H-indene-1-carboxamide]: at F508delCFTR [1], the Emax was at least 150% and the EC50 was below 3 µM. Besides, on F508delCFTR [2], the “Maximum % activity (with co-corrector)” value was “+++ (≥350)” and the EC50 is below 3 µM.

At F508delCFTR [1], `O=C(NS(=O)(=O)c1cccc2ccccc12)C1CCCc2cccc(C3CCC3)c21` (stereo not shown) [Example I-82, 8-cyclobutyl-N-(naphthalene-1-sulfonyl)-1,2,3,4-tetrahydronaphthalene-1-carboxamide] gave an Emax of at least 150% and an EC50 below 3 µM. Moreover, on F508delCFTR [2], the “Maximum % activity (with co-corrector)” value is “+++ (≥350)” and the EC50 is below 3 µM.

On F508delCFTR [1], `CC1(C(=O)NS(=O)(=O)c2cccc3ccccc23)CCc2cccc(C3CCC3)c21` (stereo not shown) [Example I-83, 7-cyclobutyl-1-methyl-N-(naphthalene-1-sulfonyl)-2,3-dihydro-1H-indene-1-carboxamide] displayed an Emax of at least 150% and an EC50 below 3 µM. On F508delCFTR [2], the “Maximum % activity (with co-corrector)” value is recorded as “+++ (≥350)” and the EC50 was below 3 µM.

With `COc1ccc(Br)c2c1CC[C@H]2C(=O)NS(=O)(=O)c1cccc2ccccc12` [Example I-84, (1R)-7-bromo-4-methoxy-N-(naphthalene-1-sulfonyl)-2,3-dihydro-1H-indene-1-carboxamide], on F508delCFTR [1], the Emax is at least 150% and the EC50 was in the range of 3 to 10 µM. Further, on F508delCFTR [2], the “Maximum % activity (with co-corrector)” value was “+++ (≥350)” and the EC50 was below 3 µM.

As for `COc1ccc(Br)c2c1CC[C@@H]2C(=O)NS(=O)(=O)c1cccc2ccccc12` [Example I-85, (1S)-7-bromo-4-methoxy-N-(naphthalene-1-sulfonyl)-2,3-dihydro-1H-indene-1-carboxamide], on F508delCFTR [1], the Emax lay in the range of 50 to 150% and the EC50 lay in the range of 3 to 10 µM. In addition, on F508delCFTR [2], the “Maximum % activity (with co-corrector)” value is on record as “+++ (≥350)” and the EC50 lay within 3 to 10 µM.

On F508delCFTR [1], `COc1ccc(C2CC2)c2c1C(C(=O)NS(=O)(=O)c1cccc3ccccc13)CCC2` (stereo not shown) [Example I-88, 5-cyclopropyl-8-methoxy-N-(naphthalene-1-sulfonyl)-1,2,3,4-tetrahydronaphthalene-1-carboxamide] came in with an Emax of at least 150% and an EC50 below 3 µM. At F508delCFTR [2], the “Maximum % activity (with co-corrector)” value was “+++ (≥350)” and the EC50 is below 3 µM.

With `COc1ccc(OC)c2c1CC[C@@H]2C(=O)NS(=O)(=O)c1cccc2ccccc12` [Example I-89, (1S)-4,7-dimethoxy-N-(naphthalene-1-sulfonyl)-2,3-dihydro-1H-indene-1-carboxamide], on F508delCFTR [1], the Emax lay in the range of 50 to 150% and the EC50 is 3 to 10 µM. In addition, on F508delCFTR [2], the “Maximum % activity (with co-corrector)” value was “++ (≥150 and <350)”; the EC50 lay in the range of 3 to 10 µM.

At F508delCFTR [1], `COc1ccc(OC)c2c1CC[C@H]2C(=O)NS(=O)(=O)c1cccc2ccccc12` [Example I-90, (1R)-4,7-dimethoxy-N-(naphthalene-1-sulfonyl)-2,3-dihydro-1H-indene-1-carboxamide] yielded a maximum response (Emax) of at least 150% and an EC50 of 3 to 10 µM. At F508delCFTR [2], the “Maximum % activity (with co-corrector)” value is recorded as “+++ (≥350)” and the EC50 lay within 3 to 10 µM.
